Measurements reported in patent publication US20240279214A1, “ALPHA4 BETA7 INEGRIN ANTAGONISTS AND USES THEREOF” (XinThera, Inc., priority 2022, published 2024).
Like-named read-outs stand apart in the source and are kept apart here. Blank lines part the entries; values can stand above or below the compound they belong to.

Tests used:
[1] = 13-membered ring
[2] = target: T1, a4b7 integrin interaction with MadCAM-1 (Homo sapiens, UniProt P13612+P26010); experiment: a4b7 Cell Capture Assay (RPMI8866 cells on MAdCAM-1 Fc coated plates); assay type: cell-based; settings: 50% human serum, 1 mM MgCl2, 1 hour incubation, CellTiter-Glo luminescence, read-out: a4B7 cell capture assay RMPI8866-MadCAM EC50
T1 construct: capture of a4b7 integrin expressing cells, RPMI8866; endogenous in cells; host or cells: RPMI8866
T1 sequence (P13612 34-1032): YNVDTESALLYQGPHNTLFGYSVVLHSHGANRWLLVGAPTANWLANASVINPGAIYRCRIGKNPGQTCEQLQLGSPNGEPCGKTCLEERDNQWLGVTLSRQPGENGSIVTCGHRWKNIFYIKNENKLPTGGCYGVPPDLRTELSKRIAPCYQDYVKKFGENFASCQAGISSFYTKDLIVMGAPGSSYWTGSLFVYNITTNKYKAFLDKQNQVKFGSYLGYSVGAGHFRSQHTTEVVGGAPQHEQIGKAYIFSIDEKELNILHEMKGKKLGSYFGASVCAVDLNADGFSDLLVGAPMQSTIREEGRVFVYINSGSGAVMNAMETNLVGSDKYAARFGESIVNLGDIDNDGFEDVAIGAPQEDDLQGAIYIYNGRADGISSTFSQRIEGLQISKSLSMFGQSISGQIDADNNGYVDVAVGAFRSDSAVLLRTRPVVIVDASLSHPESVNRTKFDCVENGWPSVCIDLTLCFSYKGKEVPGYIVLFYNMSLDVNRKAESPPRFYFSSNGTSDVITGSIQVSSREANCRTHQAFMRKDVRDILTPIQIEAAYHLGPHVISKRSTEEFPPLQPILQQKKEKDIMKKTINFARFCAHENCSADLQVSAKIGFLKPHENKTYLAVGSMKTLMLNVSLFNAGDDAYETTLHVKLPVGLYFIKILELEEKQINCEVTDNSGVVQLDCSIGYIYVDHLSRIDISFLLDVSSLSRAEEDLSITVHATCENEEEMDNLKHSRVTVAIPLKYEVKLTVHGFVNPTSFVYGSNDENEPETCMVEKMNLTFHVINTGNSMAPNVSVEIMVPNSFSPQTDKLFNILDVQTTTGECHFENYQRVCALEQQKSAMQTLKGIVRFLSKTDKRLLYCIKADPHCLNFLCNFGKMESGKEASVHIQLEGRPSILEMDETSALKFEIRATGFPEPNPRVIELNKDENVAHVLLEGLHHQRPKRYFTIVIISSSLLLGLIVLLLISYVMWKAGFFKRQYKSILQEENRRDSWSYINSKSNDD
T1 sequence (P26010 20-798): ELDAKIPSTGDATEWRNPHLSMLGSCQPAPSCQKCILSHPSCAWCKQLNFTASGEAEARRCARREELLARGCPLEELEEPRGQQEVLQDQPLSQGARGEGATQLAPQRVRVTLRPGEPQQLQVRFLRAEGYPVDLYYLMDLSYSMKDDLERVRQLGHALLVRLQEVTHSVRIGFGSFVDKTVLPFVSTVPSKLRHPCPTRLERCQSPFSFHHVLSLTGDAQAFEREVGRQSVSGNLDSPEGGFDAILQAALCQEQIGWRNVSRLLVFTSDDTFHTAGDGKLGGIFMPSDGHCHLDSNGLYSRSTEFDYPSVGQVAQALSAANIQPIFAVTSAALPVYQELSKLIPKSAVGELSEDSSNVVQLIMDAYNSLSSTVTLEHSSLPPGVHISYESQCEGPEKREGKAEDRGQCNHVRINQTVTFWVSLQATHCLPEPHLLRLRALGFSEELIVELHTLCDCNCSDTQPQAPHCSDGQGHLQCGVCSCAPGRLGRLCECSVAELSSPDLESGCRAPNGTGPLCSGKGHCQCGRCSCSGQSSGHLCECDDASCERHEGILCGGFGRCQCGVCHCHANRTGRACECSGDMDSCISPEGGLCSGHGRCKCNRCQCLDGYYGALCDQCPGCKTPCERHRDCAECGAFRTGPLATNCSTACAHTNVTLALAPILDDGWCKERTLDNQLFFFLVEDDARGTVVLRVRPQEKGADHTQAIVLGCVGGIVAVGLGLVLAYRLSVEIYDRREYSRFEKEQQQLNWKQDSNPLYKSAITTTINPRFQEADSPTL
In short: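 RPMI8866 cells (1.0×10^6 cells/mL) in 1 mM MgCl2, 25 mM HEPES, 50% human serum were added to plates coated with human MAdCAM-1–IgG1 Fc (1.0 μg/mL) and exposed to compound (9-point, 0.08–1000 nM, 0.1% DMSO) for 1 h at 37 °C. Bound cells were read by CellTiter-Glo luminescence. IC50 came from 4-parameter fit of normalized % inhibition.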

SMILES: CCOC(=O)C[C@@H]1NC(=O)C(=O)c2cccc(c2)Cc2cccc(C)c2-c2cc(C)c(F)c1c2
ring closure, isolated yield ([1]; from CCOC(=O)C[C@H](N)c1cc(-c2c(C)cccc2Cc2cccc(C(=O)C(=O)O)c2)cc(C)c1F, amide bond, TCFH/NMI, MeCN, 139.3 mM, 25.0 °C, 3.0 h): 32.5%

SMILES: CCOC(=O)C[C@@H]1NC(=O)C(n2c(=O)c3ccncc3n(C)c2=O)c2cc(ccc2F)Oc2cccc(C)c2-c2cc(C)c(F)c1c2 (stereo partly drawn)
ring closure, isolated yield ([1]; from CCOC(=O)C[C@H](NC(=O)C(c1cc(Br)ccc1F)n1c(=O)c2ccncc2n(C)c1=O)c1cc(-c2c(C)cccc2O)cc(C)c1F, ether bond, CuI/K2CO3/(1R,2R)-N1,N2-dimethylcyclohexane-1,2-diamine, 1,4-dioxane, 50.0 mM, 100.0 °C, 2.0 h): 82.6%

SMILES: CCOC(=O)C[C@@H]1NC(=O)C(n2cc(CCN3CC(F)(F)C3)c(C(F)(F)F)cc2=O)c2cc(ccc2F)Oc2cccc(C)c2-c2cc(C)c(F)c1c2 (stereo partly drawn)
ring closure, isolated yield ([1]; from CCOC(=O)C[C@H](NC(=O)C(c1cc(Br)ccc1F)n1cc(CCN2CC(F)(F)C2)c(C(F)(F)F)cc1=O)c1cc(-c2c(C)cccc2O)cc(C)c1F, ether bond, CuI/(1R,2R)-N1,N2-dimethylcyclohexane-1,2-diamine/K2CO3, 1,4-dioxane, 26.0 mM, 100.0 °C, 16.0 h): 50.3%

SMILES: CCOC(=O)C[C@@H]1NC(=O)C(n2cc(CCN3CC(F)C3)c(C(F)(F)F)cc2=O)c2cc(cc(C(F)(F)F)c2)Oc2cccc(C)c2-c2cc1c(F)c(C(F)(F)F)c2 (stereo partly drawn)
ring closure, isolated yield ([1]; from CCOC(=O)C[C@H](NC(=O)C(c1cc(Br)cc(C(F)(F)F)c1)n1cc(CCN2CC(F)C2)c(C(F)(F)F)cc1=O)c1cc(-c2c(C)cccc2O)cc(C(F)(F)F)c1F, ether bond, CuI/(1R,2R)-N1,N2-dimethylcyclohexane-1,2-diamine/K2CO3, dioxane, 15.0 mM, 100.0 °C, 2.0 h): 64.3%

SMILES: CCOC(=O)C[C@@H]1NC(=O)C(n2cc(CCN3CC(F)C3)c(C(F)(F)F)cc2=O)c2cc(ccc2C)Oc2cccc(C)c2-c2cc(C)c(F)c1c2 (stereo partly drawn)
ring closure, isolated yield ([1]; from CCOC(=O)C[C@H](NC(=O)C(c1cc(Br)ccc1C)n1cc(CCN2CC(F)C2)c(C(F)(F)F)cc1=O)c1cc(-c2c(C)cccc2O)cc(C)c1F, ether bond, CuI/K2CO3/(1R,2R)-N1,N2-dimethylcyclohexane-1,2-diamine, 1,4-dioxane, 100.0 °C): 88.9%

SMILES: CCOC(=O)C[C@@H]1NC(=O)C(n2cc(CCN3CC(F)C3)c(C(F)(F)F)cc2=O)c2cc(ccc2F)Oc2cc(C(C)(C)O)cc(C)c2-c2cc(C)c(F)c1c2 (stereo partly drawn)
ring closure, isolated yield ([1]; from CCOC(=O)C[C@H](NC(=O)C(c1cc(Br)ccc1F)n1cc(CCN2CC(F)C2)c(C(F)(F)F)cc1=O)c1cc(-c2c(C)cc(C(C)(C)O)cc2O)cc(C)c1F, ether bond, CuI/(1R,2R)-N1,N2-dimethylcyclohexane-1,2-diamine/K2CO3, 1,4-dioxane, 40.0 mM, 100.0 °C, 16.0 h): 28.3%

SMILES: CCOC(=O)C[C@@H]1NC(=O)C(n2cc(CCN3CC(F)C3)c(C(F)(F)F)cc2=O)c2cc(ccc2F)Oc2cc(C(F)(F)F)cc(C)c2-c2cc(C)c(F)c1c2 (stereo partly drawn)
ring closure, isolated yield ([1]; from CCOC(=O)C[C@H](NC(=O)C(c1cc(Br)ccc1F)n1cc(CCN2CC(F)C2)c(C(F)(F)F)cc1=O)c1cc(-c2c(C)cc(C(F)(F)F)cc2O)cc(C)c1F, ether bond, CuI/K2CO3/(1R,2R)-N1,N2-dimethylcyclohexane-1,2-diamine, 1,4-dioxane, 30.0 mM, 100.0 °C, 16.0 h): 55%

SMILES: CCOC(=O)C[C@@H]1NC(=O)C(n2cc(CCN3CC(F)C3)c(C(F)(F)F)cc2=O)c2cc(ccc2F)Oc2cc(C3COC3)cc(C)c2-c2cc(C)c(F)c1c2 (stereo partly drawn)
ring closure, isolated yield ([1]; from CCOC(=O)C[C@H](NC(=O)C(c1cc(Br)ccc1F)n1cc(CCN2CC(F)C2)c(C(F)(F)F)cc1=O)c1cc(-c2c(C)cc(C3COC3)cc2O)cc(C)c1F, ether bond, CuI/(1R,2R)-N1,N2-dimethylcyclohexane-1,2-diamine/K2CO3, 1,4-dioxane, 25.0 mM, 100.0 °C, 1.0 h): 31.8%

SMILES: CCOC(=O)C[C@@H]1NC(=O)C(n2cc(CCN3CC(F)C3)c(C(F)(F)F)cc2=O)c2cc(ccc2F)Oc2cccc(C)c2-c2cc(C)c(F)c1c2F (stereo partly drawn)
ring closure, isolated yield ([1]; from CCOC(=O)C[C@H](NC(=O)C(c1cc(Br)ccc1F)n1cc(CCN2CC(F)C2)c(C(F)(F)F)cc1=O)c1c(F)c(C)cc(-c2c(C)cccc2O)c1F, ether bond, CuI/K2CO3/(1R,2R)-N1,N2-dimethylcyclohexane-1,2-diamine, 1,4-dioxane, 48.0 mM, 100.0 °C): 72%

SMILES: CCOC(=O)C[C@@H]1NC(=O)C(n2cc(CCN3CC(F)C3)c(C(F)(F)F)cc2=O)c2cc(ccc2F)Oc2nn(C)cc2-c2cc(C)c(F)c1c2 (stereo partly drawn)
ring closure, isolated yield ([1]; from CCOC(=O)C[C@H](N)c1cc(-c2cn(C)nc2Oc2ccc(F)c(C(C(=O)O)n3cc(CCN4CC(F)C4)c(C(F)(F)F)cc3=O)c2)cc(C)c1F, amide bond, EDCI/HOBt/DIEA, MeCN, 32.6 mM, 60.0 °C, 6.0 h): 29.9%

SMILES: CCOC(=O)C[C@@H]1NC(=O)C(n2cc(CCN3CC(F)C3)c(C(F)(F)F)cc2=O)c2cc(ccc2F)Oc2nn(CC3CC3)cc2-c2cc(C)c(F)c1c2 (stereo partly drawn)
ring closure, isolated yield ([1]; from CCOC(=O)C[C@H](N)c1cc(-c2cn(CC3CC3)nc2Oc2ccc(F)c(C(C(=O)O)n3cc(CCN4CC(F)C4)c(C(F)(F)F)cc3=O)c2)cc(C)c1F, amide bond, EDCI/HOBt/DIEA, MeCN, 45.0 mM, 60.0 °C, 2.0 h): 14.6%

SMILES: CCOC(=O)C[C@@H]1NC(=O)C(n2cc3ccccc3cc2=O)c2cc(ccc2F)Oc2cccc(C)c2-c2cc(C)c(F)c1c2 (stereo partly drawn)
ring closure, isolated yield ([1]; from CCOC(=O)C[C@H](NC(=O)C(c1cc(Br)ccc1F)n1cc2ccccc2cc1=O)c1cc(-c2c(C)cccc2O)cc(C)c1F, ether bond, CuI/(1R,2R)-N,N'-dimethylcyclohexane-1,2-diamine/K2CO3, dioxane, 58.0 mM, 100.0 °C, 2.0 h): 33.9%

EC50 [2]: 0.95 nM
SMILES: Cc1cccc2c1-c1ccc(F)c(c1)[C@H](CC(=O)O)NC(=O)[C@@H](n1cc(CCN3CC(F)C3)c(C(F)(F)F)cc1=O)c1cc(ccc1F)O2 [Example 32, 2-((5S,8S)-1^4,4^4-difluoro-5-(5-(2-(3-fluoroazetidin-1-yl)ethyl)-2-oxo-4-(trifluoromethyl)pyridin-1(2H)-yl)-2^6-methyl-6-oxo-3-oxa-7-aza-1,4(1,3),2(1,2)-tribenzenacyclooctaphane-8-yl)acetic acid]

EC50 [2]: 1.3 nM
SMILES: Cc1cc2cc(c1F)[C@H](CC(=O)O)NC(=O)[C@@H](n1cc(CCN3CC(F)C3)c(C(F)(F)F)cc1=O)c1cc(cc(Cl)c1F)Oc1cccc(C)c1-2 [Example 38, [(14S,17S)-11-chloro-12,19-difluoro-14-{5-[2-(3-fluoroazetidin-1-yl)ethyl]-2-oxo-4-(trifluoromethyl)pyridin-1-yl}-3,20-dimethyl-15-oxo-8-oxa-16-azatetracyclo[16.3.1.1^{9,13}.0^{2,7}]tricosa-1(22),2(7),3,5,9,11,13(23),18,20-nonaen-17-yl]acetic acid]

EC50 [2]: > 100 nM
SMILES: Cc1cccc2c1-c1cc(c(F)c(C(F)(F)F)c1)[C@H](CC(=O)O)NC(=O)[C@@H](n1cc(Cl)c(C(F)(F)F)cc1=O)c1cccc(c1)O2 [Example 39, [(17S)-14-[5-chloro-2-oxo-4-(trifluoromethyl)pyridin-1-yl]-19-fluoro-3-methyl-15-oxo-20-(trifluoromethyl)-8-oxa-16-azatetracyclo[16.3.1.1^{9,13}.0^{2,7}]tricosa-1(22),2(7),3,5,9,11,13(23),18,20-nonaen-17-yl]acetic acid]
